This note sets out measurements from patent US7247709B2, “Mitogenic oxygenases” (Emory University, priority 1998, dated 2007).

The test system of assay [1] is r-p65mox mRNA. Briefly: Expression of r-p65mox mRNA in rat aortic smooth muscle cells (Northern blot). Type of assay: cell-based. The procedure: Human multiple tissue northern (MTN) Blot I and Human MTN Blot IV (ClonTech) membranes were hybridized with the putative coding region of the PCR-mox vector at 68° C. for several hours. The mox coding region was labeled by random priming with [α-^32P]dCTP (10 μCi) using the Prime-It II kit (Stratagene). For analysis of mox1 expression in cell lines, total RNA was prepared from 10^6 cells using the High Pure RNA Isolation Kit (Boehringer Mannheim) or RNeasy kit (Quiagen). Total RNA (10-20 μg) was separated on a 1% agarose formaldehyde mini-gel and transferred to a Nytran filter (Biorad) and immobilized by ultraviolet cross-linking.
Using the partial cDNA clone from rat, we have examined cultured rat aortic smooth muscle cells for expression of message for r-p65mox. We have observed the mRNA for r-p65mox in these cells. It has been previously reported (Griendling et al. (1994) Circ. Res. 74, 1141-1148; Fukui et al. (1997) Circ. Res. 80, 45-51; Ushio-Fukai et al. (1996) J. Biol. Chem. 271, 23317-23321) that in vitro or in vivo treatment with angiotensin II (AII) is a growth stimulus for vascular smooth muscle cells, and that AII induces increased superoxide generation in these cells. Platelet-derived growth factor (PDGF) and PMA are proliferative signals for vascular smooth muscle cells. We observed that the mRNA for r-p65mox was induced approximately 2-3 fold by angiotensin II (100 nM), corresponding to the increased level of superoxide generation. Thus, the increased superoxide generation in these cells correlates with increased expression of the mRNA for this enzyme. […] 28S RNA was used as a control for RNA recovery.

Assay [2] concerns NIH 3T3 cells transfected with the mox1 cDNA (SEQ ID NO:1). The assay is described as follows: Nitro blue tetrazolium reduction by superoxide generated by intact NIH 3T3 cells transfected with mox1 cDNA. Conditions: 600 units superoxide dismutase. It counts as cell-based. The procedure:
Superoxide generation by intact cells was monitored by using superoxide dismutase-sensitive reduction of nitroblue tetrazolium. NEF2 (vector alone control), YA26 (mox1 (SEQ ID NO:1)-transfected) and YA28 (mox1 (SEQ ID NO:1)-transfected) cells were plated in six well plates at 500,000 cells per well. About 24 hours later, medium was removed from cells and the cells were washed once with 1 mL Hanks solution (Sigma, St. Louis, Mo.). About 1 mL of filtered 0.25% Nitro blue tetrazolium (NBT, Sigma) was added in Hanks without or with 600 units of superoxide dismutase (Sigma) and cells were incubated at 37° C. in the presence of 5% CO2. After 8 minutes the cells were scraped and pelleted at more than 10,000 g. The pellet was re-suspended in 1 mL of pyridine (Sigma) and heated for 10 minutes at 100° C. to solubilize the reduced NBT. The concentration of reduced NBT was determined by measuring the absorbance at 510 nm, using an extinction coefficient of 11,000 M^−1cm^−1. Some wells were untreated and used to determine cell number.

For assay [3], the system named is superoxide-generating NADPH oxidase activity. Briefly: Superoxide generation in lysates of Ras-transformed fibroblasts, lucigenin luminescence assay. The settings on record: for RLU/5 μg protein, plus SOD: 100 U SOD; for inhibition of luminescence / activity: lysates of Table 6; for RLU/5 μg protein, plus DPI: 1 μM DPI. It counts as biochemical. On the procedure:
Lysates from each of these lines were then prepared and tested for their ability to generate superoxide. For each cell line, cells were washed with cold HANKS' balanced salt solution (HBSS), collected by centrifugation, kept on dry-ice for more than 30 min, and disrupted by suspending in low salt buffer (LSB; 50 mM Tris/HCl, pH 7.5, 1 mM PMSF, and protease cocktail from Sigma) and passing through a syringe needle (18 gauge) ten times. Cell lysates were frozen in dry-ice immediately after determining the protein concentration. […] Luminescence of the reaction mixture was monitored for 0.5 second by LumiCounter (Packard) for four times at 3 second intervals. RLU in Table 5 refers to relative luminescence units.

Assay [4] concerns the target T1, human mox1 (Homo sapiens, UniProt Q9Y5S8, I173V).
T1 construct: expressed in transfected cells
T1 sequence (Q9Y5S8 1-564 I173V): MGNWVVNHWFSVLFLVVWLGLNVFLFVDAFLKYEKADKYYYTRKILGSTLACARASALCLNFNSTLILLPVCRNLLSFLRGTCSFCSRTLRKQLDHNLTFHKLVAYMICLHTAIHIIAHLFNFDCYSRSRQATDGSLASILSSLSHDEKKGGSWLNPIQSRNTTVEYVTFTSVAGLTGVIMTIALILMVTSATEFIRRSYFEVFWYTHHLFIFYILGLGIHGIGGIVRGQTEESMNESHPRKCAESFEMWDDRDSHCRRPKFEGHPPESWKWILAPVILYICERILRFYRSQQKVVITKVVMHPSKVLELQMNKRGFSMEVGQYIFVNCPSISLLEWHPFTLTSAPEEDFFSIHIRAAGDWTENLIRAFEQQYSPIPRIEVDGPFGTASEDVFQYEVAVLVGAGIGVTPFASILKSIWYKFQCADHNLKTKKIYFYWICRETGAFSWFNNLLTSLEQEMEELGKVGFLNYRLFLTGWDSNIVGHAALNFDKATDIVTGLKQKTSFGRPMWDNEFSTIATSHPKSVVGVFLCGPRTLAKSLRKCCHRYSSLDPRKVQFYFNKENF
T1 sequence (Q61462 1-192 partner): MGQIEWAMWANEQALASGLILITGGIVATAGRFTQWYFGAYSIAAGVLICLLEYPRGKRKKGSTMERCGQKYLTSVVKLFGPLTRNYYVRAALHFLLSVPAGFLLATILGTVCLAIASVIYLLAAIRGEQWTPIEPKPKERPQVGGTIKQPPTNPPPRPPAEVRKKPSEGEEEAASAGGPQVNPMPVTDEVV
The assay is described as follows: NADPH-dependent superoxide generation, lucigenin luminescence assay in lysates of mox1-transfected NIH 3T3 cells. It counts as biochemical. The settings on record: lysates of stably mox1-transfected NIH 3T3 cell lines. The procedure:
In one embodiment of the present invention, NIH 3T3 cells stably transfected with the human mox1 gene (SEQ ID NO:1) were analyzed for superoxide generation using the lucigenin (Bis-N-methylacridinium luminescence assay (Sigma, St. Louis, Mo., Li et al. (1998) J. Biol. Chem. 273, 2015-2023). Cells were washed with cold HANKS' solution and homogenized on ice in HANKS' buffer containing 15% sucrose using a Dounce homogenizer. Cell lysates were frozen immediately in a dry ice/ethanol bath. For the assay, 30 μg of cell lysate was mixed with 200 μM NADPH and 500 μM lucigenin. Luminescence was monitored using a LumiCounter (Packard) at three successive one minute intervals and the highest value was used for comparison. Protein concentration was determined by the Bradford method.
Superoxide generation was monitored in lysates from some of the stably transfected cell lines and was compared with superoxide generation by the untransfected NIH 3T3 cell lysates. Cell lines 26, 27, and 28 gave the highest degree of morphological changes by microscopic examination corresponding to the highest degree of superoxide generation. The luminescent signal was inhibited by superoxide dismutase and the general flavoprotein inhibitor diphenylene iodonium, but was unaffected by added recombinant human p47phox, p67phox and Rac1 (GTP-γS), which are essential cytosolic factors for the phagocyte respiratory-burst oxidase.

A value given as a limit tells only on which side of the number the result lay.

As for “angiotensin II (DRVYIHPF; Angiotensin-2; UniProt P01019 25-32, looked up) [growth stimulus for vascular smooth muscle cells]”, the “induction of rat mox1 message, quantitation by densitometry” value in assay [1] (12 hour time point) is recorded as “approximately 2 fold”.

superoxide dismutase: the “NBT Reduction, +SOD” value is reported as 3.4 ± 0.1 nmols/10^6 cells in assay [2] (YA26 (mox1) cells), 3.4 ± 0.3 nmols/10^6 cells in assay [2] (YA28 (mox1) cells) and 2.1 ± 0.5 nmols/10^6 cells in assay [2] (vector control cells). Moreover, the “RLU/5 μg protein, plus SOD” value in assay [3] (V12-Ras-4 lysate) was found to be 2128 RLU/5 μg protein; in assay [3] (V12-Ras-7 lysate), 578 RLU/5 μg protein; in assay [3] (V12-Ras-8 lysate), 2000 RLU/5 μg protein; in assay [3] (Vector Control lysate), 154 RLU/5 μg protein. In addition, the “inhibition of luminescence / activity” value in assay [3] is reported as “partially inhibited”. In assay [4], the “effect of added agent on the luminescent signal” value (shortened to “effect of added agent”) is “inhibited”.

Regarding PDGF, the “induction of rat mox1 message, quantitation by densitometry” value in assay [1] (6 and 12 hour time points) is recorded as approximately 4 fold. The “increase of mRNA for r-p65mox” value in assay [1] (PDGF 20 ng/ml) is not below 2 fold. For the same molecule, in assay [1] (within 12 hours after treatment), the “Northern hybridization of mox1 mRNA from rat aortic smooth muscle cells” value is reported as “increased roughly two-fold”.

In the case of `c1ccc2c(c1)[I+]c1ccccc1-2` [DPI, diphenyleneiodonium], the “RLU/5 μg protein, plus DPI” value is listed as 36 RLU/5 μg protein in assay [3] (V12-Ras-4 lysate), 39 RLU/5 μg protein in assay [3] (V12-Ras-7 lysate), 35 RLU/5 μg protein in assay [3] (V12-Ras-8 lysate) and 48 RLU/5 μg protein in assay [3] (Vector Control lysate). For the same molecule, the “inhibition of luminescence / activity” value in assay [3] is “completely inhibited”. In assay [4], the “effect of added agent” value is “inhibited”.

B1: p67phox: recombinant human p67phox, essential cytosolic factor for the phagocyte respiratory-burst oxidase (protein, UniProt P19878 1-526, looked up)
Neutrophil cytosol factor 2: MSLVEAISLWNEGVLAADKKDWKGALDAFSAVQDPHSRICFNIGCMYTILKNMTEAEKAFTRSINRDKHLAVAYFQRGMLYYQTEKYDLAIKDLKEALIQLRGNQLIDYKILGLQFKLFACEVLYNIAFMYAKKEEWKKAEEQLALATSMKSEPRHSKIDKAMECVWKQKLYEPVVIPVGKLFRPNERQVAQLAKKDYLGKATVVASVVDQDSFSGFAPLQPQAAEPPPRPKTPEIFRALEGEAHRVLFGFVPETKEELQVMPGNIVFVLKKGNDNWATVMFNGQKGLVPCNYLEPVELRIHPQQQPQEESSPQSDIPAPPSSKAPGRPQLSPGQKQKEEPKEVKLSVPMPYTLKVHYKYTVVMKTQPGLPYSQVRDMVSKKLELRLEHTKLSYRPRDSNELVPLSEDSMKDAWGQVKNYCLTLWCENTVGDQGFPDEPKESEKADANNQTTEPQLKKGSQVEALFSYEATQPEDLEFQEGDIILVLSKVNEEWLEGECKGKVGIFPKVFVEDCATTDLESTRREV
With B1, the “effect of added agent” value in assay [4] is on record as “unaffected”.

B2: p47phox: recombinant human p47phox, essential cytosolic factor for the phagocyte respiratory-burst oxidase (protein, UniProt P14598 1-390, looked up)
Neutrophil cytosol factor 1: MGDTFIRHIALLGFEKRFVPSQHYVYMFLVKWQDLSEKVVYRRFTEIYEFHKTLKEMFPIEAGAINPENRIIPHLPAPKWFDGQRAAENRQGTLTEYCSTLMSLPTKISRCPHLLDFFKVRPDDLKLPTDNQTKKPETYLMPKDGKSTATDITGPIILQTYRAIANYEKTSGSEMALSTGDVVEVVEKSESGWWFCQMKAKRGWIPASFLEPLDSPDETEDPEPNYAGEPYVAIKAYTAVEGDEVSLLEGEAVEVIHKLLDGWWVIRKDDVTGYFPSMYLQKSGQDVSQAQRQIKRGAPPRRSSIRNAHSIHQRSRKRLSQDAYRRNSVRFLQQRRRQARPGPQSPGSPLEEERQTQRSKPQPAVPPRPSADLILNRCSESTKRKLASAV
Take B2: the “effect of added agent” value in assay [4] was “unaffected”.
